Test results from patent publication US8568755B2 (priority 2007, dated 2013).
Where “and” joins values, the source holds several entries; their conditions need not be identical. Equal entries are not always repeated. Structures can show the parent of a compound that is named as a salt. Where two headings read alike, the source gives them in different places.

Experiments:
Erysiphe graminis = experiment: Test on preventive effect against wheat powdery mildew (Test Example 1); format: in vivo
Sphaerotheca fuliginea = format: in vivo
[1] = partner fungicide alone 0.125 ppm
[2] = partner fungicide alone 0.5 ppm
[3] = partner fungicide alone 125 ppm
[4] = partner fungicide alone 250 ppm
[5] = partner fungicide alone 500 ppm

Compound: Fc1ccc([C@]2(Cn3cncn3)O[C@H]2c2ccccc2Cl)cc1 (racemic) [epoxiconazole]
- diseased area ratio to non-treated section (Erysiphe graminis; fungicide (b) alone 0.5 ppm): 21.2
- diseased area ratio to non-treated section (Erysiphe graminis; fungicide (b) alone 1 ppm): 3.0

Compound: COc1cc(C)c(C(=O)c2c(Cl)cnc(Cl)c2C(F)(F)F)c(OC)c1OC [Compound A, 4-(2,3,4-trimethoxy-6-methylbenzoyl)-2,5-dichloro-3-trifluoromethylpyridine]
- diseased area ratio to non-treated section (Erysiphe graminis; [1]): 65

Compound: COc1cc(C)c(C(=O)c2c(OC)cnc(Cl)c2C(F)(F)F)c(OC)c1OC [Compound B, 4-(2,3,4-trimethoxy-6-methylbenzoyl)-2-chloro-3-trifluoromethyl-5-methoxypyridine]
- diseased area ratio to non-treated section (Erysiphe graminis; [1]): 50.0
- diseased area ratio to non-treated section (Erysiphe graminis; [2]): 30.0

Compound: COc1cc(C)c(C(=O)c2c(OC)ncc(Br)c2Cl)c(OC)c1OC [Compound C, 3-(2,3,4-trimethoxy-6-methylbenzoyl)-5-bromo-4-chloro-2-methoxypyridine]
- diseased area ratio to non-treated section (Erysiphe graminis; [1]): 37.5
- diseased area ratio to non-treated section (Erysiphe graminis; [2]): 6.0

Compound: COc1cc(C)c(C(=O)c2c(OC)ncc(Cl)c2C)c(OC)c1OC [Compound D, 3-(2,3,4-trimethoxy-6-methylbenzoyl)-5-chloro-2-methoxy-4-methylpyridine]
- diseased area ratio to non-treated section (Erysiphe graminis; partner fungicide alone 0.06 ppm): 27.5
- diseased area ratio to non-treated section (Erysiphe graminis; [1]): 15.0

Compound: CC(C)Oc1ccc(C(=O)C(C)(C)NC(=O)c2ncccc2C(F)(F)F)cc1 [Compound No. 7, N-[[4′-(2-propyloxy)-1,1-dimethyl]phenacyl]-3-trifluoromethyl-2-pyridinecarboxamide]
- diseased area ratio to non-treated section (Erysiphe graminis; Compound (a) alone 8 ppm): 30.0
- diseased area ratio to non-treated section (Erysiphe graminis; Compound (a) alone 16 ppm): 25.0
- diseased area ratio to non-treated section (Erysiphe graminis; Compound (a) alone 31 ppm): 4.0

Compound: Cc1ccsc1C(=O)NC(C)(C)C(=O)c1ccc(Cl)c(Cl)c1 [No. 2]
- diseased area ratio to non-treated section (Sphaerotheca fuliginea; Compound No.x alone 2 ppm): 70.0
- diseased area ratio to non-treated section (Sphaerotheca fuliginea; Compound No.x alone 4 ppm): 50.0 and 32.5

Compound: Cc1cc(OC(C)C)ccc1C(=O)C(C)(C)NC(=O)c1ncccc1C(F)(F)F [No. 4]
- diseased area ratio to non-treated section (Erysiphe graminis; Compound No.x alone 16 ppm): 17.5
- diseased area ratio to non-treated section (Erysiphe graminis; Compound No.x alone 31 ppm): 17.5
- diseased area ratio to non-treated section (Erysiphe graminis; Compound No.x alone 63 ppm): 15.0 and 7.5
- diseased area ratio to non-treated section (Erysiphe graminis; Compound No.x alone 125 ppm): 5.0

Compound: CC(C)Oc1ccc(C(=O)C(C)(C)NC(=O)c2ncccc2C(F)(F)F)cc1 [No. 7]
- diseased area ratio to non-treated section (Sphaerotheca fuliginea; Compound No.x alone 1 ppm): 81.3
- diseased area ratio to non-treated section (Sphaerotheca fuliginea; Compound No.x alone 2 ppm): 75.0
- diseased area ratio to non-treated section (Sphaerotheca fuliginea; Compound No.x alone 4 ppm): 56.3

Compound: CO/C=C(/C(=O)OC)c1ccccc1Oc1cc(Oc2ccccc2C#N)ncn1 [azoxystrobin]
- diseased area ratio to non-treated section (Sphaerotheca fuliginea; partner fungicide alone 31 ppm): 37.5 and 55.0
- diseased area ratio to non-treated section (Sphaerotheca fuliginea; partner fungicide alone 63 ppm): 35.0 and 55.0
- diseased area ratio to non-treated section (Sphaerotheca fuliginea; [3]): 35.0

Compound: N#Cc1c(Cl)c(Cl)c(Cl)c(C#N)c1Cl [chlorothalonil]
- diseased area ratio to non-treated section (Sphaerotheca fuliginea; partner fungicide alone 4 ppm): 77.5
- diseased area ratio to non-treated section (Sphaerotheca fuliginea; partner fungicide alone 16 ppm): 37.5

Compound: CC(=O)c1c(C)c(C)nc2c(F)cc(C(C)(C)C)cc12 [compound β, 2,3-dimethyl-6-t-butyl-8-fluoro-4-acetylquinoline]
- diseased area ratio to non-treated section (Erysiphe graminis; fungicide (b) alone 10 ppm): 95.0

Compound: [Cl-].[Cu+2].[Cu+2].[OH-].[OH-].[OH-] [copper oxychloride]
- diseased area ratio to non-treated section (Sphaerotheca fuliginea; [4]): 25.0
- diseased area ratio to non-treated section (Sphaerotheca fuliginea; [5]): 21.9
- diseased area ratio to non-treated section (Sphaerotheca fuliginea; partner fungicide alone 1000 ppm): 20.7 and 20.6

Compound: Cc1ccc(-c2c(Cl)nc(C#N)n2S(=O)(=O)N(C)C)cc1 [cyazofamid, reference compound]
- diseased area ratio to non-treated section (Sphaerotheca fuliginea; fungicide (b) alone 63 ppm): 80.0
- diseased area ratio to non-treated section (Sphaerotheca fuliginea; fungicide (b) alone 125 ppm): 57.5
- diseased area ratio to non-treated section (Sphaerotheca fuliginea; partner fungicide alone 63 ppm): 70.0
- diseased area ratio to non-treated section (Sphaerotheca fuliginea; [3]): 57.5

Compound: CC(C1CC1)C(O)(Cn1cncn1)c1ccc(Cl)cc1 (stereo not drawn) [cyproconazole]
- diseased area ratio to non-treated section (Erysiphe graminis; fungicide (b) alone 0.125 ppm): 97.5
- diseased area ratio to non-treated section (Erysiphe graminis; fungicide (b) alone 0.5 ppm): 60.0

Compound: CC1COC(Cn2cncn2)(c2ccc(Oc3ccc(Cl)cc3)cc2Cl)O1 (stereo not drawn) [difenoconazole]
- diseased area ratio to non-treated section (Sphaerotheca fuliginea; partner fungicide alone 8 ppm): 31.3
- diseased area ratio to non-treated section (Sphaerotheca fuliginea; partner fungicide alone 16 ppm): 9.4
- diseased area ratio to non-treated section (Sphaerotheca fuliginea; partner fungicide alone 31 ppm): 8.1

Compound: COc1ccc(C(=CC(=O)N2CCOCC2)c2ccc(Cl)cc2)cc1OC [dimethomorph]
- diseased area ratio to non-treated section (experimental value) (Sphaerotheca fuliginea; single use at 500 ppm): 95.0

Compound: CC1(C(=O)Nc2ccc(O)c(Cl)c2Cl)CCCCC1 [fenhexamid]
- diseased area ratio to non-treated section (Sphaerotheca fuliginea; [3]): 52.5
- diseased area ratio to non-treated section (Sphaerotheca fuliginea; [4]): 52.5
- diseased area ratio to non-treated section (Sphaerotheca fuliginea; [5]): 50.0

Compound: O=C1c2ccccc2C(=O)N1SC(Cl)(Cl)Cl [folpet]
- diseased area ratio to non-treated section (Sphaerotheca fuliginea; [3]): 84.4
- diseased area ratio to non-treated section (Sphaerotheca fuliginea; [4]): 84.4
- diseased area ratio to non-treated section (Sphaerotheca fuliginea; [5]): 81.3

Compound: CCCCC(O)(Cn1cncn1)c1ccc(Cl)cc1Cl (stereo not drawn) [hexaconazole]
- diseased area ratio to non-treated section (Sphaerotheca fuliginea; partner fungicide alone 2 ppm): 95.0
- diseased area ratio to non-treated section (Sphaerotheca fuliginea; partner fungicide alone 4 ppm): 85.0
- diseased area ratio to non-treated section (Sphaerotheca fuliginea; partner fungicide alone 8 ppm): 75.0

Compound: Cc1cc(O)no1 [hymexazol]
- diseased area ratio to non-treated section (Sphaerotheca fuliginea; partner fungicide alone 100 ppm): 95.0

Compound: N=C(N)NCCCCCCCCNCCCCCCCCNC(=N)N [iminoctadine]
- diseased area ratio to non-treated section (Sphaerotheca fuliginea; partner fungicide alone 4 ppm): 65.0
- diseased area ratio to non-treated section (Sphaerotheca fuliginea; partner fungicide alone 8 ppm): 45.0
- diseased area ratio to non-treated section (Sphaerotheca fuliginea; partner fungicide alone 16 ppm): 30.0

Compound: CC(C)NC(=O)N1CC(=O)N(c2cc(Cl)cc(Cl)c2)C1=O [iprodione]
- diseased area ratio to non-treated section (Sphaerotheca fuliginea; [3]): 60.0
- diseased area ratio to non-treated section (Sphaerotheca fuliginea; [4]): 45.0
- diseased area ratio to non-treated section (Sphaerotheca fuliginea; [5]): 45.0

Compound: CC#Cc1cc(C)nc(Nc2ccccc2)n1 [mepanipyrim]
- diseased area ratio to non-treated section (Sphaerotheca fuliginea; partner fungicide alone 63 ppm): 0.5
- diseased area ratio to non-treated section (Sphaerotheca fuliginea; [3]): 0.5

Compound: C/C=C/C(=O)Oc1c(C(C)CCCCCC)cc([N+](=O)[O-])cc1[N+](=O)[O-] (stereo not drawn) [meptyldinocap]
- diseased area ratio to non-treated section (experimental value) (Sphaerotheca fuliginea; single use at 3 ppm): 2.5

Compound: O=C([O-])O.[K+] [potassium bicarbonate]
- diseased area ratio to non-treated section (experimental value) (Sphaerotheca fuliginea; single use at 100 ppm): 25.0
- diseased area ratio to non-treated section (experimental value) (Sphaerotheca fuliginea; single use at 1000 ppm): 20.0

Compound: CC12CC1(C)C(=O)N(c1cc(Cl)cc(Cl)c1)C2=O (stereo not drawn) [procymidone]
- diseased area ratio to non-treated section (Sphaerotheca fuliginea; [3]): 85.0
- diseased area ratio to non-treated section (Sphaerotheca fuliginea; [4]): 82.5
- diseased area ratio to non-treated section (Sphaerotheca fuliginea; [5]): 70.0

Compound: CCCOC(=O)NCCCN(C)C [propamocarb hydrochloride]
- diseased area ratio to non-treated section (experimental value) (Sphaerotheca fuliginea; single use at 10 ppm): 95.0
- diseased area ratio to non-treated section (experimental value) (Sphaerotheca fuliginea; single use at 100 ppm): 95.0
- diseased area ratio to non-treated section (experimental value) (Sphaerotheca fuliginea; single use at 1000 ppm): 92.5

Compound: COC(=O)N(OC)c1ccccc1COc1ccn(-c2ccc(Cl)cc2)n1 [pyraclostrobin]
- diseased area ratio to non-treated section (experimental value) (Sphaerotheca fuliginea; single use at 100 ppm): 100

Compound: Cc1cc(C)nc(Nc2ccccc2)n1 [pyrimethanil]
- diseased area ratio to non-treated section (Sphaerotheca fuliginea; partner fungicide alone 25 ppm): 90.0

Compound: COC(=O)NC(=S)Nc1ccccc1NC(=S)NC(=O)OC [thiophanate-methyl]
- diseased area ratio to non-treated section (Sphaerotheca fuliginea; partner fungicide alone 63 ppm): 75.0
- diseased area ratio to non-treated section (Sphaerotheca fuliginea; [3]): 65.0

Compound: COP(=S)(OC)Oc1c(Cl)cc(C)cc1Cl [tolclofosmethyl]
- diseased area ratio to non-treated section (experimental value) (Sphaerotheca fuliginea; single use at 100 ppm): 80.0

Compound: CON=C(C(=O)OC)c1ccccc1CON=C(C)c1cccc(C(F)(F)F)c1 [trifloxystrobin]
- diseased area ratio to non-treated section (Sphaerotheca fuliginea; partner fungicide alone 4 ppm): 85.0
- diseased area ratio to non-treated section (Sphaerotheca fuliginea; partner fungicide alone 200 ppm): 50.0
- diseased area ratio to non-treated section (experimental value) (Sphaerotheca fuliginea; single use at 4 ppm): 85.0
- diseased area ratio to non-treated section (experimental value) (Sphaerotheca fuliginea; single use at 200 ppm): 50.0

Compound: CCCOC/C(=N\c1ccc(Cl)cc1C(F)(F)F)n1ccnc1 [triflumizole]
- diseased area ratio to non-treated section (Sphaerotheca fuliginea; partner fungicide alone 3 ppm): 85
- diseased area ratio to non-treated section (Sphaerotheca fuliginea; partner fungicide alone 12 ppm): 70

Compound: mancozeb
- diseased area ratio to non-treated section (Sphaerotheca fuliginea; [3]): 50.0
- diseased area ratio to non-treated section (Sphaerotheca fuliginea; [4]): 31.3

Compound: polyoxins
- diseased area ratio to non-treated section (Sphaerotheca fuliginea; [3]): 40.0
- diseased area ratio to non-treated section (Sphaerotheca fuliginea; [4]): 35.0

Compound: potassium phosphite
- diseased area ratio to non-treated section (experimental value) (Sphaerotheca fuliginea; single use at 100 ppm): 85.0
- diseased area ratio to non-treated section (experimental value) (Sphaerotheca fuliginea; single use at 500 ppm): 80.0
